Data from ChEMBL document CHEMBL1145759, “Selective phenolic acylation of 10-hydroxycamptothecin using poly (ethylene glycol) carboxylic acid” (Bioorg Med Chem Lett, 2003).

Columns and labels:
[1] = Half life measured in rat plasma; assay type: ADME
[2] = Half life measured in PBS; assay type: ADME
P388 [3] = experiment: Inhibitory activity against P388/0 Leukemia cells; assay type: functional, cell-based; conditions: Mus musculus
Mus musculus = experiment: Inhibition of human colon tumor (LS174T) xenograft in nude mice; assay type: functional
P388 [4] = experiment: Inhibitory activity against P388 Leukemia cells; assay type: functional, cell-based; conditions: Mus musculus

| Structure (SMILES) | half-life [1] [min] | half-life [2] [h] | IC50 (P388 [3]) [nM] | Inhibition (Mus musculus) [%] | IC50 (P388 [4]) [nM] |
| --- | --- | --- | --- | --- | --- |
| CC[C@@]1(O)C(=O)OCc2c1cc1n(c2=O)Cc2cc3cc(OC(=O)COCCO)ccc3nc2-1 | 7.2 | 5 | 55 | 57.6 |  |
| CC[C@@]1(O)C(=O)OCc2c1cc1n(c2=O)Cc2cc3ccccc3nc2-1 [CAMPTOTHECIN] |  |  |  | 4.9 | 7 |
| CC[C@@]1(O)C(=O)OCc2c1cc1n(c2=O)Cc2cc3cc(O)ccc3nc2-1 [HYDROXYCAMPTOTHECIN] |  |  |  | 36.5 | 12 |
